Measured values reported in patent publication US20220000111A1, “METHODS OF INCREASING ALMOND YIELD” (Valent U.S.A. LLC, priority 2020, published 2022).

Legend:
Format in all cases: in vivo
almond trees [1] = experiment: Example 3: foliar AVG-HCl application at full bloom or after, nonpareil and carmel almonds; conditions: for % Kernel Doubling / Nutmeat Yield / Nuts/Tree: 124 g/Ha
Procedure: 2 sets of AVG applications were performed on 2 varieties of almonds, nonpareil and […]. For the two sets of applications performed AVG-HCl was applied to almond trees either at full bloom or after full bloom, specifically 15, 22, 26, 32, 36 or 38 DAFB.

almond trees [2] = experiment: Example 1: foliar AVG-HCl application to almond trees, 2018-2019, nutmeat yield and kernel doubling at harvest; conditions: for percentage of shells harvested that contained two nut kernels, Average / yield at harvest of almond nutmeat, Average: average of trials
Procedure: […] of AVG applications were performed over a 2-year period. Each set of applications included a set of untreated control (“UTC”) trees. For the two sets of applications performed during the 2018 calendar year AVG-HCl was applied to almond trees either between 10% and full bloom (i.e. bloom) or between 6-7 weeks following full bloom (i.e. post-bloom). For the three sets of applications performed during the 2019 calendar year an additional application was performed as follows: 3-4 weeks post-bloom in combination with 6-7 weeks post-bloom.

almond trees [3] = experiment: Example 2: foliar AVG-HCl application at full bloom or after, nonpareil and carmel almonds; conditions: for % Kernel Doubling / Nutmeat Yield / Nuts/Tree: 124 g/Ha
Procedure: 2 sets of AVG applications were performed on 2 varieties of almonds, nonpareil and […]. For the two sets of applications performed AVG-HCl was applied to almond trees either at full bloom or after full bloom, specifically at 22, 26, 29 or 33 days after full bloom (“DAFB”).

almond trees [4] = experiment: Example 4: foliar AVG-HCl application to nonpareil almonds at Newman and Sutter, 2020; conditions: for percentage of shells harvested that contained two nut kernels / yield at harvest of almond nutmeat: nonpareil, 124 g/Ha
Procedure: 2 sets of AVG applications were performed on nonpareil almonds at Newman, Calif. and Sutter, Calif. in 2020. Each set of applications included a set of untreated control (“UTC”) trees. AVG-HCl was applied to almond trees either at 50% bloom (i.e. bloom), shuck split, or 7 days following shuck split.

[5] = 3-4 weeks Post-bloom & 6-7 weeks Post-bloom, 2 apps, 62 g/Ha each
[6] = 3-4 weeks Post-bloom & 6-7 weeks Post-bloom, 2 apps, 62 g/Ha each, trial 2019-1
[7] = 3-4 weeks Post-bloom & 6-7 weeks Post-bloom, 2 apps, 62 g/Ha each, trial 2019-2
[8] = 3-4 weeks Post-bloom & 6-7 weeks Post-bloom, 2 apps, 62 g/Ha each, trial 2019-3
[9] = 6-7 weeks Post-bloom, 1 app, 124 g/Ha
[10] = 6-7 weeks Post-bloom, 1 app, 124 g/Ha, trial 2018-1 (second column)
[11] = 6-7 weeks Post-bloom, 1 app, 124 g/Ha, trial 2019-1
[12] = 6-7 weeks Post-bloom, 1 app, 124 g/Ha, trial 2019-2
[13] = 6-7 weeks Post-bloom, 1 app, 124 g/Ha, trial 2019-3
[14] = Bloom, 1 app, 124 g/Ha, trial 2018-1 (second column)
[15] = Bloom, 1 app, 124 g/Ha, trial 2019-1
[16] = Bloom, 1 app, 124 g/Ha, trial 2019-2
[17] = Bloom, 1 app, 124 g/Ha, trial 2019-3
[18] = Newman, 7-days post shuck split
[19] = Sutter, 7-days post shuck split

SMILES: NCCO/C=C/[C@H](N)C(=O)O (stereo in doubt) [AVG, [S]-trans-2-amino-4-(2-aminoethoxy)-3-butenoic acid]
- nutmeat yield, in words (almond trees [1]; application during bloom or following full bloom, nonpareil and carmel (Tables 5 and 6)): increases nutmeat yield
- kernel doubling, in words (almond trees [1]; application during bloom, nonpareil and carmel (Tables 5 and 6)): statistically significant increase in kernel doubling
- kernel doubling, in words (almond trees [1]; application post-bloom, nonpareil and carmel (Tables 5 and 6)): did not result in a statistically significant increase in kernel doubling
- kernel doubling, in words (almond trees [2]; application during bloom (Table 2)): statistically significant increase in kernel doubling
- nutmeat yield, in words (almond trees [2]; application during bloom, versus untreated control (Table 1)): increases nutmeat yield over untreated control
- kernel doubling, in words (almond trees [2]; application post-bloom (Table 2)): did not result in a statistically significant increase in kernel doubling
- nutmeat yield, in words (almond trees [2]; application post-bloom, versus bloom treatment (Table 1)): greater increase in nutmeat yield than that obtained when treating during bloom
- nutmeat yield, in words (almond trees [3]; application during bloom or following full bloom, nonpareil and carmel (Tables 3 and 4)): increases nutmeat yield
- kernel doubling, in words (almond trees [3]; application during bloom, nonpareil and carmel (Tables 3 and 4)): statistically significant increase in kernel doubling
- kernel doubling, in words (almond trees [3]; application post-bloom, nonpareil and carmel (Tables 3 and 4)): did not result in a statistically significant increase in kernel doubling
- nutmeat yield, in words (almond trees [4]; application during bloom, versus untreated control (Table 7)): increases nutmeat yield over untreated control
- kernel doubling, in words (almond trees [4]; application during bloom, Sutter, Calif. trial (Table 8)): statistically significant increase in kernel doubling
- kernel doubling, in words (almond trees [4]; application post-bloom (Table 8)): did not result in a statistically significant increase in kernel doubling
- nutmeat yield, in words (almond trees [4]; application post-bloom, versus bloom treatment (Table 7)): greater increase in nutmeat yield than that obtained when treating during bloom

SMILES: Cl.NCCO/C=C/[C@H](N)C(=O)O [AVG-HCl]
- % Kernel Doubling (almond trees [1]; carmel, 15 DAFB): 0.4 b %
- Nutmeat Yield (almond trees [1]; carmel, 15 DAFB): 6.00 kg/tree
- Nuts/Tree (almond trees [1]; carmel, 15 DAFB): 7271 nuts per tree
- % Kernel Doubling (almond trees [1]; carmel, 22 DAFB): 1.4 b %
- Nutmeat Yield (almond trees [1]; carmel, 22 DAFB): 5.40 kg/tree
- Nuts/Tree (almond trees [1]; carmel, 22 DAFB): 7427 nuts per tree
- % Kernel Doubling (almond trees [1]; carmel, 32 DAFB): 0.6 b %
- Nutmeat Yield (almond trees [1]; carmel, 32 DAFB): 5.30 kg/tree
- Nuts/Tree (almond trees [1]; carmel, 32 DAFB): 6972 nuts per tree
- % Kernel Doubling (almond trees [1]; carmel, 38 DAFB): 1 b %
- Nutmeat Yield (almond trees [1]; carmel, 38 DAFB): 7.00 kg/tree
- Nuts/Tree (almond trees [1]; carmel, 38 DAFB): 8875 nuts per tree
- % Kernel Doubling (almond trees [1]; carmel, Full Bloom): 8.4 a %
- Nutmeat Yield (almond trees [1]; carmel, Full Bloom): 6.10 kg/tree
- Nuts/Tree (almond trees [1]; carmel, Full Bloom): 7097 nuts per tree
- % Kernel Doubling (almond trees [1]; nonpareil, 26 DAFB): 0.8 b %
- Nutmeat Yield (almond trees [1]; nonpareil, 26 DAFB): 5.9 kg/tree
- Nuts/Tree (almond trees [1]; nonpareil, 26 DAFB): 7636.8 nuts per tree
- % Kernel Doubling (almond trees [1]; nonpareil, 36 DAFB): 0.6 c %
- Nutmeat Yield (almond trees [1]; nonpareil, 36 DAFB): 6 kg/tree
- Nuts/Tree (almond trees [1]; nonpareil, 36 DAFB): 7789.8 nuts per tree
- % Kernel Doubling (almond trees [1]; nonpareil, Full Bloom): 2.0 a %
- Nutmeat Yield (almond trees [1]; nonpareil, Full Bloom): 4.3 kg/tree
- Nuts/Tree (almond trees [1]; nonpareil, Full Bloom): 5251.6 nuts per tree
- percentage of shells harvested that contained two nut kernels, Average (almond trees [2]; [5]): 1.55 b %
- yield at harvest of almond nutmeat, Average (almond trees [2]; [5]): 1229 a kilograms per hectare
- percentage of shells harvested that contained two nut kernels (almond trees [2]; [6]): 1.3 b %
- yield at harvest of almond nutmeat (almond trees [2]; [6]): 1164 kilograms per hectare
- percentage of shells harvested that contained two nut kernels (almond trees [2]; [7]): 1.5 abc %
- yield at harvest of almond nutmeat (almond trees [2]; [7]): 1698 a kilograms per hectare
- percentage of shells harvested that contained two nut kernels (almond trees [2]; [8]): 1.9 b %
- yield at harvest of almond nutmeat (almond trees [2]; [8]): 825 b kilograms per hectare
- percentage of shells harvested that contained two nut kernels, Average (almond trees [2]; [9]): 2.11 b %
- yield at harvest of almond nutmeat, Average (almond trees [2]; [9]): 1033 ab kilograms per hectare
- yield at harvest of almond nutmeat (almond trees [2]; 6-7 weeks Post-bloom, 1 app, 124 g/Ha, trial 2018-1 (first column)): 721 kilograms per hectare
- percentage of shells harvested that contained two nut kernels (almond trees [2]; [10]): 6.6 b %
- yield at harvest of almond nutmeat (almond trees [2]; [10]): 1345 a kilograms per hectare
- percentage of shells harvested that contained two nut kernels (almond trees [2]; [11]): 2.5 ab %
- yield at harvest of almond nutmeat (almond trees [2]; [11]): 1168 kilograms per hectare
- percentage of shells harvested that contained two nut kernels (almond trees [2]; [12]): 1.08 bc %
- yield at harvest of almond nutmeat (almond trees [2]; [12]): 1220 b kilograms per hectare
- percentage of shells harvested that contained two nut kernels (almond trees [2]; [13]): 0.7 bc %
- yield at harvest of almond nutmeat (almond trees [2]; [13]): 713 bc kilograms per hectare
- percentage of shells harvested that contained two nut kernels, Average (almond trees [2]; Bloom, 1 app, 124 g/Ha): 8.62 a %
- yield at harvest of almond nutmeat, Average (almond trees [2]; Bloom, 1 app, 124 g/Ha): 1068 ab kilograms per hectare
- yield at harvest of almond nutmeat (almond trees [2]; Bloom, 1 app, 124 g/Ha, trial 2018-1 (first column)): 712 kilograms per hectare
- percentage of shells harvested that contained two nut kernels (almond trees [2]; [14]): 27.7 a %
- yield at harvest of almond nutmeat (almond trees [2]; [14]): 1148 b kilograms per hectare
- percentage of shells harvested that contained two nut kernels (almond trees [2]; [15]): 3.5 a %
- yield at harvest of almond nutmeat (almond trees [2]; [15]): 1204 kilograms per hectare
- percentage of shells harvested that contained two nut kernels (almond trees [2]; [16]): 2.92 ab %
- yield at harvest of almond nutmeat (almond trees [2]; [16]): 1198 b kilograms per hectare
- percentage of shells harvested that contained two nut kernels (almond trees [2]; [17]): 15.9 a %
- yield at harvest of almond nutmeat (almond trees [2]; [17]): 1031 a kilograms per hectare
- % Kernel Doubling (almond trees [3]; carmel, 22 DAFB): 5.6 bc %
- Nutmeat Yield (almond trees [3]; carmel, 22 DAFB): 7.94 kg/tree
- Nuts/Tree (almond trees [3]; carmel, 22 DAFB): 8499 b nuts per tree
- % Kernel Doubling (almond trees [3]; carmel, 26 DAFB): 3.7 c %
- Nutmeat Yield (almond trees [3]; carmel, 26 DAFB): 8.50 kg/tree
- Nuts/Tree (almond trees [3]; carmel, 26 DAFB): 9676 a nuts per tree
- % Kernel Doubling (almond trees [3]; carmel, Full Bloom): 7.6 a %
- Nutmeat Yield (almond trees [3]; carmel, Full Bloom): 7.04 kg/tree
- Nuts/Tree (almond trees [3]; carmel, Full Bloom): 7039 b nuts per tree
- % Kernel Doubling (almond trees [3]; nonpareil, 29 DAFB): 1.4 b %
- Nutmeat Yield (almond trees [3]; nonpareil, 29 DAFB): 8.64 a kg/tree
- Nuts/Tree (almond trees [3]; nonpareil, 29 DAFB): 8435 a nuts per tree
- % Kernel Doubling (almond trees [3]; nonpareil, 33 DAFB): 0.4 b %
- Nutmeat Yield (almond trees [3]; nonpareil, 33 DAFB): 7.89 ab kg/tree
- Nuts/Tree (almond trees [3]; nonpareil, 33 DAFB): 8350 a nuts per tree
- % Kernel Doubling (almond trees [3]; nonpareil, Full Bloom): 3.8 a %
- Nutmeat Yield (almond trees [3]; nonpareil, Full Bloom): 8.03 ab kg/tree
- Nuts/Tree (almond trees [3]; nonpareil, Full Bloom): 8153 ab nuts per tree
- percentage of shells harvested that contained two nut kernels (almond trees [4]; [18]): 3.0%
- yield at harvest of almond nutmeat (almond trees [4]; [18]): 3726 a kilograms per hectare
- percentage of shells harvested that contained two nut kernels (almond trees [4]; Newman, Bloom (50% bloom)): 2.7%
- yield at harvest of almond nutmeat (almond trees [4]; Newman, Bloom (50% bloom)): 3188 c kilograms per hectare
- percentage of shells harvested that contained two nut kernels (almond trees [4]; Newman, Shuck split): 2.2%
- yield at harvest of almond nutmeat (almond trees [4]; Newman, Shuck split): 3369 b kilograms per hectare
- percentage of shells harvested that contained two nut kernels (almond trees [4]; [19]): 0.5%
- yield at harvest of almond nutmeat (almond trees [4]; [19]): 3558 ab kilograms per hectare
- percentage of shells harvested that contained two nut kernels (almond trees [4]; Sutter, Bloom (50% bloom)): 1.2%
- yield at harvest of almond nutmeat (almond trees [4]; Sutter, Bloom (50% bloom)): 3658 a kilograms per hectare
- percentage of shells harvested that contained two nut kernels (almond trees [4]; Sutter, Shuck split): 0.7%
- yield at harvest of almond nutmeat (almond trees [4]; Sutter, Shuck split): 3758 a kilograms per hectare
